Converted amounts (≈) assume the structure as drawn. Non-standard residues stand in square brackets, D forms with d. Residues, ends and D or L forms follow the SMILES beside them. Dip = N[C@H](C(=O)O)C(c1ccccc1)c1ccccc1
What was measured:
Test in all cases: microbe, parasite or virus in culture
[1] = system: P. aeruginosa (ATCC 27883); format: cell-based, Pseudomonas aeruginosa; details: ATCC 27883, 24 h
Protocol: (§1) The antibacterial activity of all ten synthesized linear and cyclic peptides was evaluated against MRSA (ATCC BAA-1556), S. aureus (ATCC 29213), E. faecium (ATCC 700221), S. pneumoniae (ATCC 51938), E. faecalis (ATCC 29212), B. subtilis (ATCC-6633), K. pneumoniae (ATCC BAA-1705), P. aeruginosa (ATCC 27883), and E. coli (ATCC 25922). Meropenem and daptomycin were used as positive controls for this study. Certain peptides are marked as “NT” (not tested) against specific bacterial strains based on initial screening data. […] The MIC was determined by micro-broth dilution protocol, where the minimal concentrations were determined to be in wells with no visible bacterial growth.
(§2) All bacterial experiments were carried out in a laminar flow hood (Labconco, Kansas City, MO, USA). The bacterial strains were cultured following the guidelines set by the Clinical Laboratory Standards Institute (CLSI). Antibacterial assays were performed using a standard microtiter dilution method as described in previous studies. The minimum inhibitory concentration (MIC) refers to the lowest peptide concentration that inhibits bacterial growth in wells with no visible bacterial growth. MIC was determined by micro-broth dilution. Bacteria were cultured overnight in 6 mL of Luria Broth (LB). A stock solution of the peptide was prepared in water and DMSO, and a test compound solution with a concentration of 256 µg/mL was made in LB. Meropenem, with a solubility of 8 mg/mL, was prepared as a stock solution at 4 mg/500 µL. An aliquot of the overnight bacteria culture was diluted in normal saline (NS, 1 mL) until achieving a 0.5 McFarland turbidity (1.5 × 10^8 bacterial cell CFU/mL). A 0.5 McFarland compared solution (60 µL) was added to Mueller Hinton Broth (MH) 8940 µL to generate a 1/150 dilution. A 200 µL test compound solution was added to the first well of a 96-well plate, and the remaining wells (2–12) were filled with 100 µL of MH media using a multi-channel pipette from a sterile reservoir. A concentration of […] of the tested peptides was prepared from a stock solution of the samples for testing in Muller−Hinton broth MH media. Peptides stock solution was dissolved in 5% DMSO in water, and the final concentration of DMSO in the first well of assay plate was 2.5% DMSO/H2O and diluted across the assay plate.
(§3) A 100 µL sample from well 1 was pipetted into well 2, and the solution was mixed thoroughly by pipetting up and down. Next, 100 µL was transferred from well 2 to well 3, followed by thorough mixing. This 2-fold serial dilution process continued through well 11, with no additions made to well 12. The final 100 µL from well 11 was discarded. After completing the serial dilution, each well (1–12) contained 100 µL of solution. The bacterial culture in MH media was vortexed and transferred to a sterile reservoir, from which 100 µL was added to each well using a 12-channel pipette. (Note: The dilutions were further diluted upon adding the bacterial solution; for example, the concentration in well 1 started at […] after the addition of the bacterial culture.) The plates were incubated overnight at 37 °C for 24 h. All experiments were performed in triplicate and repeated twice, with controls consisting of bacteria in MH media and positive controls of daptomycin or meropenem.

E. coli (ATCC 25922) = format: cell-based, Escherichia coli; details: ATCC 25922, 24 h
Protocol: as §1, §2, §3

[2] = system: S. pneumoniae (ATCC 51938); format: cell-based, Streptococcus pneumoniae; details: ATCC 51938, 24 h
Protocol: as §1, §2, §3

E. faecium (ATCC 700221) = format: cell-based, Enterococcus faecium; details: ATCC 700221, 24 h
Protocol: as §1, §2, §3

C. albicans (ATCC 60193) = format: cell-based, Candida albicans; details: ATCC 60193, 24 h
Protocol: (§4) The antifungal activity of all ten synthesized linear and cyclic peptides was evaluated against C. albicans (ATCC 60193), C. parapsilosis (ATCC 22019), and A. fumigatus (AF-293). Fluconazole and amphotericin B were used as positive controls for this study. The MIC was determined at concentrations in wells with no visible fungal growth.
(§5) In this study, C. albicans and C. parapsilosis were cultured on Yeast Peptone Dextrose (YPD) agar containing 1% w/v yeast extract, 2% w/v peptone, 2% w/v D-glucose, and 1.5% agar. A single colony from the agar was selected and cultured in Tryptone soy broth supplemented with 0.1% D-glucose, then incubated for 24 h at 37 °C. The cells were washed twice with PBS by centrifugation at 2000 RPM for 5 min. The pellet was resuspended in 5 mL of PBS, diluted in RPMI 1640 with L-glutamine, supplemented with 2% D-glucose, and the pH adjusted using HEPES buffer. The suspension was then incubated for 50 min at 35 °C to achieve a final cell concentration of 10^6 cells/mL.
(§6) Peptide concentrations of 50, 25, 12.5, 6.25, and 3.1 μg/mL were tested in triplicate and repeated twice. Each well of a 96-well plate was inoculated with the prepared inoculum suspension, which was diluted with RPMI media to a final volume of 200 μL per well. The control well received the same inoculum without any compound. The plates were incubated for 24 h at 37 °C. Fungal and microbial growth were visually observed in the control wells, and the minimum inhibitory concentration (MIC) was determined as the lowest concentration at which no growth was detected in the wells. Amphotericin B was used as a standard antifungal drug.

S. aureus (ATCC 29213) = format: cell-based, Staphylococcus aureus; details: ATCC 29213, 24 h
Protocol: as §1, §2, §3

[3] = system: C. parapsilosis (ATCC 22019); format: cell-based, Candida parapsilosis; details: ATCC 22019, 24 h
Protocol: as §4, §5, §6

B. subtilis (ATCC-6633) = format: cell-based, Bacillus subtilis; details: ATCC-6633, 24 h
Protocol: as §1, §2, §3

E. faecalis (ATCC 29212) = format: cell-based, Enterococcus faecalis; details: ATCC 29212, 24 h
Protocol: as §1, §2, §3

MRSA (ATCC BAA-1556) = format: cell-based, Methicillin-Resistant Staphylococcus aureus; details: ATCC BAA-1556, 24 h
Protocol: as §1, §2, §3

[4] = system: K. pneumoniae (ATCC BAA-1705); format: cell-based, Klebsiella pneumoniae; details: ATCC BAA-1705, 24 h
Protocol: as §1, §2, §3

MIC [1] [µM] | MIC (E. coli (ATCC 25922)) [µM] | MIC [2] [µM] | MIC (E. faecium (ATCC 700221)) [µM] | MIC (C. albicans (ATCC 60193)) [µM] | MIC (S. aureus (ATCC 29213)) [µM] | MIC [3] [µM] | MIC (B. subtilis (ATCC-6633)) [µM] | MIC (E. faecalis (ATCC 29212)) [µM] | MIC (MRSA (ATCC BAA-1556)) [µM] | MIC [4] [µM] | SMILES
12.5 (≈ 22.6 µg/mL) | 6.3 (≈ 11.4 µg/mL) | 0.78 (≈ 1.41 µg/mL) | 3.1 (≈ 5.59 µg/mL) | 3.5 (≈ 6.31 µg/mL) | 3.1 (≈ 5.59 µg/mL) | 6.9 (≈ 12.4 µg/mL) | 1.6 (≈ 2.89 µg/mL) | 6.3 (≈ 11.4 µg/mL) | 3.1 (≈ 5.59 µg/mL) | 12.5 (≈ 22.6 µg/mL) | N=C(N)NCCC[C@H](NC(=O)[C@@H](NC(=O)[C@H](CCCNC(=N)N)NC(=O)[C@@H](NC(=O)[C@H](CCCNC(=N)N)NC(=O)[C@H](Cc1c[nH]c2ccccc12)NC(=O)[C@H](CCCNC(=N)N)NC(=O)[C@H](Cc1c[nH]c2ccccc12)NC(=O)[C@H](CCCNC(=N)N)NC(=O)[C@@H](N)Cc1c[nH]c2ccccc12)C(c1ccccc1)c1ccccc1)C(c1ccccc1)c1ccccc1)C(=O)O [((DipR)2(WR)3)] (H-WRWRWR[Dip]R[Dip]R-OH)
25 (≈ 46 µg/mL) | 12.5 (≈ 23 µg/mL) | 0.78 (≈ 1.44 µg/mL) | 3.1 (≈ 5.71 µg/mL) | 3.4 (≈ 6.26 µg/mL) | 3.1 (≈ 5.71 µg/mL) | 6.8 (≈ 12.5 µg/mL) | 3.1 (≈ 5.71 µg/mL) | 3.1 (≈ 5.71 µg/mL) | 3.1 (≈ 5.71 µg/mL) | 25 (≈ 46 µg/mL) | N=C(N)NCCC[C@H](NC(=O)[C@@H](NC(=O)[C@H](CCCNC(=N)N)NC(=O)[C@@H](NC(=O)[C@H](CCCNC(=N)N)NC(=O)[C@@H](NC(=O)[C@H](CCCNC(=N)N)NC(=O)[C@H](Cc1c[nH]c2ccccc12)NC(=O)[C@H](CCCNC(=N)N)NC(=O)[C@@H](N)Cc1c[nH]c2ccccc12)C(c1ccccc1)c1ccccc1)C(c1ccccc1)c1ccccc1)C(c1ccccc1)c1ccccc1)C(=O)O [((DipR)3(WR)2)] (H-WRWR[Dip]R[Dip]R[Dip]R-OH)
25 (≈ 47 µg/mL) | 12.5 (≈ 23.5 µg/mL) | 0.78 (≈ 1.47 µg/mL) | 1.6 (≈ 3.01 µg/mL) | 6.6 (≈ 12.4 µg/mL) | 3.1 (≈ 5.82 µg/mL) | 6.6 (≈ 12.4 µg/mL) | 12.5 (≈ 23.5 µg/mL) | 1.6 (≈ 3.01 µg/mL) | 3.1 (≈ 5.82 µg/mL) | 25 (≈ 47 µg/mL) | N=C(N)NCCC[C@H](NC(=O)[C@@H](NC(=O)[C@H](CCCNC(=N)N)NC(=O)[C@@H](NC(=O)[C@H](CCCNC(=N)N)NC(=O)[C@@H](NC(=O)[C@H](CCCNC(=N)N)NC(=O)[C@@H](NC(=O)[C@H](CCCNC(=N)N)NC(=O)[C@@H](N)Cc1c[nH]c2ccccc12)C(c1ccccc1)c1ccccc1)C(c1ccccc1)c1ccccc1)C(c1ccccc1)c1ccccc1)C(c1ccccc1)c1ccccc1)C(=O)O [((DipR)4(WR))] (H-WR[Dip]R[Dip]R[Dip]R[Dip]R-OH)
